Common to all, as to format: functional
Assay [1] in a line: Cytotoxicity against mouse P388 cells assessed as growth inhibition after 48 hrs by coulter particle counting method. The settings on record: P388, 48 h, read-out: ED50 (the source's name).
Assay [2] is described as follows: Cytotoxicity against human BxPC3 cells assessed as growth inhibition after 48 hrs by sulforhodamine B assay. The settings on record: BXPC-3, 48 h. (In general: In SRB staining, fixed cells bind dye roughly in proportion to their protein.)
A short description of assay [3]: Cytotoxicity against human MCF7 cells assessed as growth inhibition after 48 hrs by sulforhodamine B assay. The following applies: MCF7, 48 h.
Assay [4] can be described thus: Cytotoxicity against human SF268 cells assessed as growth inhibition after 48 hrs by sulforhodamine B assay. The settings on record: SF-268, 48 h.
A short description of assay [5]: Cytotoxicity against human NCI-H460 cells assessed as growth inhibition after 48 hrs by sulforhodamine B assay. The following applies: NCI-H460, 48 h.
A short description of assay [6]: Cytotoxicity against human KM20L2 cells assessed as growth inhibition after 48 hrs by sulforhodamine B assay. The following applies: KM-20L2, 48 h.
A short description of assay [7]: Cytotoxicity against human DU145 cells assessed as growth inhibition after 48 hrs by sulforhodamine B assay. The settings on record: DU-145, 48 h.

Converted amounts (≈) assume the structure as drawn.

Broadly, the GI50 is the concentration at which growth is held to half of that of the control.

As to `C[C@H](C/C=C/C(C)(C)O)[C@H]1CC[C@@]2(C)C3=C(CC[C@]12C)[C@@]1(C)CC[C@H](O)C(C)(C)[C@@H]1CC3`, the EC50 in assay [1] was greater than 10 µg/mL. Also, the GI50 stood at 1.8 µg/mL (≈ 4.07 µM) in assay [2]; 2 µg/mL (≈ 4.52 µM) in assay [3]; 1.9 µg/mL (≈ 4.29 µM) in assay [4]; 1.9 µg/mL (≈ 4.29 µM) in assay [5]; 1.8 µg/mL (≈ 4.07 µM) in assay [6]; 1.9 µg/mL (≈ 4.29 µM) in assay [7].

As to `C=C(C)[C@@H](O)CC[C@H](C)[C@@H]1CC=C2[C@]3(C)CC[C@H]4C(C)(C)[C@@H](O)CC[C@]4(C)[C@H]3CC[C@]21C`, the EC50 in assay [1] is greater than 10 µg/mL. Also, the GI50 in assay [2] was found to be 0.83 µg/mL (≈ 1.87 µM); in assay [3] it was 0.79 µg/mL (≈ 1.78 µM); in assay [4], 0.33 µg/mL (≈ 0.745 µM); in assay [5], 0.91 µg/mL (≈ 2.06 µM); in assay [6], 0.71 µg/mL (≈ 1.6 µM); in assay [7], 0.65 µg/mL (≈ 1.47 µM).

On to `C=C(C)C(O)CC[C@@H](C)[C@@H]1CC[C@]2(C)C3=C(CC[C@@]12C)[C@@]1(C)CC[C@H](O)C(C)(C)[C@@H]1CC3` (some centres not stated), for which the EC50 in assay [1] was greater than 10 µg/mL. Besides, the 50% growth inhibitory concentration (GI50) in assay [2] worked out at 1.5 µg/mL (≈ 3.39 µM); in assay [3], 2.5 µg/mL (≈ 5.65 µM); in assay [4], 1.4 µg/mL (≈ 3.16 µM); in assay [5], 1.7 µg/mL (≈ 3.84 µM); in assay [6], 7 µg/mL (≈ 15.8 µM); in assay [7] it was 1.5 µg/mL (≈ 3.39 µM).

Take `C=C(C)[C@H](O)CC[C@H](C)[C@@H]1CC=C2[C@]3(C)CC[C@H]4C(C)(C)[C@@H](O)CC[C@]4(C)[C@H]3CC[C@]21C`: the EC50 in assay [1] was greater than 10 µg/mL. The concentration for 50% growth inhibition (GI50) was 0.2 µg/mL (≈ 0.452 µM) in assay [2]; 0.68 µg/mL (≈ 1.54 µM) in assay [3]; 0.36 µg/mL (≈ 0.813 µM) in assay [4]; 0.19 µg/mL (≈ 0.429 µM) in assay [5]; greater than 1 µg/mL in assay [6]; 0.58 µg/mL (≈ 1.31 µM) in assay [7].

With `C[C@H](C/C=C/C(C)(C)O)[C@@H]1CC[C@]2(C)C3=C(CC[C@@]12C)[C@@]1(C)CC[C@H](O)C(C)(C)[C@@H]1CC3`, the EC50 in assay [1] was greater than 10 µg/mL. Moreover, the GI50 in assay [2] came out at 1.8 µg/mL (≈ 4.07 µM); in assay [3], 2.1 µg/mL (≈ 4.74 µM); in assay [4], 2.2 µg/mL (≈ 4.97 µM); in assay [5] it was 1.9 µg/mL (≈ 4.29 µM); in assay [6] it was 2 µg/mL (≈ 4.52 µM); in assay [7], 1.9 µg/mL (≈ 4.29 µM).

Regarding `C[C@@H](C/C=C/C(C)(C)O)[C@H]1CC[C@@]2(C)C3=C(C(=O)C[C@@]12C)[C@@]1(C)CC[C@H](O)C(C)(C)[C@@H]1CC3`, the EC50 in assay [1] is greater than 10 µg/mL. The GI50 in assay [2], in assay [3], in assay [4], in assay [5], in assay [6] and in assay [7] was greater than 1 µg/mL each time.

The values are drawn from ChEMBL document CHEMBL3856200, “Isolation and Structure of Cancer Cell Growth Inhibitory Tetracyclic Triterpenoids from the Zimbabwean Monadenium lugardae” (2016).
